Tests used:
[1] = target: T1, β-catenin/BCL9 PPI (Homo sapiens, UniProt P35222); assay: AlphaScreen competitive inhibition assay of β-catenin/BCL9 PPI; assay type: binding; conditions: for IC50 / Ki: AlphaScreen, mean ± SD; for IC50: 5 nM biotinylated BCL9, 40 nM His6-tagged FL-β-catenin; for Ki: Ki derived from IC50 by method of Nikolovska-Coleska et al.
T1 construct: 40 nM His6-tagged FL-β-catenin
T1 sequence (P35222 1-781): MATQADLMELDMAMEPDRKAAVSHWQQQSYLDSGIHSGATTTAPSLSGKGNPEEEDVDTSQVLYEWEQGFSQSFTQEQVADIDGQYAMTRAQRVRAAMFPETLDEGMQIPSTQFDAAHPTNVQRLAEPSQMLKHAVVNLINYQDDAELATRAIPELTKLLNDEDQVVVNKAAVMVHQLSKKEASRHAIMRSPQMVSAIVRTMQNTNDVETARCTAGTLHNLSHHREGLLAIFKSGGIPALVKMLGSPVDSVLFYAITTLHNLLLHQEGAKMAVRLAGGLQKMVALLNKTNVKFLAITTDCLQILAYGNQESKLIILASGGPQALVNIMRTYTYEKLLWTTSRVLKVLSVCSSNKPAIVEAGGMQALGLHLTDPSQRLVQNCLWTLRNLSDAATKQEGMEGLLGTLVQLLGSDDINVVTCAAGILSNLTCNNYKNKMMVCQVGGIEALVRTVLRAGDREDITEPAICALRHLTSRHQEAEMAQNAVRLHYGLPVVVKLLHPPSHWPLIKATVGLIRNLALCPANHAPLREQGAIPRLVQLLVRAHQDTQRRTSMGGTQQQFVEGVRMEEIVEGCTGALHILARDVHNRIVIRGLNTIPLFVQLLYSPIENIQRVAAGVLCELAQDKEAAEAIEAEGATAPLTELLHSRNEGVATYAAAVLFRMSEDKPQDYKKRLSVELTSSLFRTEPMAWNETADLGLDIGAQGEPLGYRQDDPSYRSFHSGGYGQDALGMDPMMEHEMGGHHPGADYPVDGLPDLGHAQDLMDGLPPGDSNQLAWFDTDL
Procedure: For the competitive inhibition assays of β-catenin/BCL9 PPI, the negative control (equivalent to 0% inhibition) refers to 5.0 nM biotinylated BCL9, 40 nM His6-tagged FL-β-catenin, and 10 μg/mL of donor and acceptor beads in a final volume of 25 μL of assay buffer, but no tested inhibitor present. The positive control (equivalent to 100% inhibition) refers to 5.0 nM biotinylated BCL9 and 10 μg/mL of donor and acceptor beads in a final volume of 25 μL of assay buffer. For the β-catenin/BCL9 assay, 5 nM biotinylated BCL9 and 40 nM His6-tagged FL-β-catenin were incubated in assay buffer at 4° C. for 30 min. Different concentrations of the tested inhibitor were added and incubated in 20 μL of assay buffer at 4° C. for another 1 h. All of the above assay plates were covered and gently mixed on an orbital shaker. The donor and acceptor beads were then added to the plates to a final concentration of 10 μg/mL in 25 μL of assay buffer. The mixture was incubated for 1 h at 4° C. before detection. The IC50 value was determined by nonlinear least-squares analysis of GraphPad Prism 5.0. The Ki values were derived from the IC50 values using a method reported by Nikolovska-Coleska et al. The assays were conducted under the conditions reported by Nikolovska-Coleska et al.'s equation for determining the Ki values. All of the experiments were performed in triplicate. The results were expressed as mean±standard deviation.

[2] = target: T2, β-catenin (Homo sapiens, UniProt P35222); assay: FP assay, binding of peptides with β-catenin (Kd); conditions: for Kd: fluorescence polarization, 50 nM FITC labeled peptide, 1×PBS
T2 sequence (P35222 1-781): T1 sequence (P35222 1-781)

SMILES	IC50 [1]	Ki [1]	binding activity, in words [2]	Kd [2]	ability to inhibit β-catenin/BCL9 PPI, in words [1]
CCC(C)[C@@H](CN(CC(=O)N[C@@H](CC(C)C)CN(CC(=O)N[C@@H](CC(C)C)CN(CC(N)=O)S(=O)(=O)Cc1ccccc1)S(=O)(=O)CC(C)C)S(=O)(=O)CC(C)C)NC(=O)CN(C[C@H](CCCNC(=N)N)NC(=O)CN(C[C@H](CC(C)C)NC(=O)CN(C[C@@H](NC(=O)CN(C[C@H](CC(C)C)NC(=O)CN(C[C@H](CCCNC(=N)N)NC(=O)CN(C[C@H](CCCNC(=N)N)NC(=O)CN(C[C@H](CCC(=O)O)NC(C)=O)S(=O)(=O)CCN)S(C)(=O)=O)S(C)(=O)=O)S(=O)(=O)CCN)C(C)O)S(=O)(=O)CC(C)C)S(=O)(=O)CCN)S(=O)(=O)CC(C)C (some centres unmarked) [Peptide 10]	4.07 ± 0.59 µM	3.65 ± 0.51 µM	decreased binding activity	2.51 µM	
CCC(C)[C@@H](CN(CC(=O)N[C@@H](CC(C)C)CN(CC(=O)N[C@@H](CC(C)C)CN(CC(N)=O)S(=O)(=O)Cc1ccccc1)S(=O)(=O)CC(C)C)S(C)(=O)=O)NC(=O)CN(C[C@H](CCCNC(=N)N)NC(=O)CN(C[C@H](CC(C)C)NC(=O)CN(C[C@@H](NC(=O)CN(C[C@H](CC(C)C)NC(=O)CN(C[C@H](CCCNC(=N)N)NC(=O)CN(C[C@H](CCCNC(=N)N)NC(=O)CN(C[C@H](CCC(=O)O)NC(C)=O)S(=O)(=O)CCN)S(C)(=O)=O)S(C)(=O)=O)S(=O)(=O)CCN)C(C)O)S(=O)(=O)CC(C)C)S(=O)(=O)CCN)S(C)(=O)=O (some centres unmarked) [Peptide 8]	8.01 ± 0.82 µM	7.2 ± 0.72 µM	inferior binding activity	3.89 µM	
CC(=O)N[C@@H](CCC(=O)O)CN(CC(=O)N[C@@H](CCCNC(=N)N)CN(CC(=O)N[C@@H](CCCNC(=N)N)CN(CC(=O)N[C@@H](CC(C)C)CN(CC(=O)N[C@H](CN(CC(=O)N[C@@H](CC(C)C)CN(CC(=O)N[C@@H](CCCNC(=N)N)CN(CC(=O)N[C@@H](CCCNC(=N)N)CN(CC(=O)N[C@@H](CC(C)C)CN(CC(=O)N[C@@H](CC(C)C)CN(CC(N)=O)S(=O)(=O)Cc1ccccc1)S(=O)(=O)CC(C)C)S(C)(=O)=O)S(=O)(=O)CC(C)C)S(=O)(=O)CCN)S(=O)(=O)CC(C)C)C(C)O)S(=O)(=O)CCN)S(C)(=O)=O)S(C)(=O)=O)S(=O)(=O)CCN (some centres unmarked) [Peptide 9]	12.9 ± 2.15 µM	11.6 ± 1.92 µM	inferior binding activity	5.14 µM	

Further lines, with some results ahead:

IC50 [1]	Ki [1]	binding activity, in words [2]	Kd [2]	SMILES	ability to inhibit β-catenin/BCL9 PPI, in words [1]
> 10 µM	> 10 µM		> 10 µM	CCC(C)[C@@H](CN(CC(=O)N[C@@H](CC(C)C)CN(CC(=O)N[C@@H](C)CN(CC(N)=O)S(=O)(=O)Cc1ccccc1)S(=O)(=O)CC(C)C)S(C)(=O)=O)NC(=O)CN(C[C@H](CCCNC(=N)N)NC(=O)CN(C[C@H](C)NC(=O)CN(C[C@@H](NC(=O)CN(C[C@H](CC(C)C)NC(=O)CN(C[C@H](CCCNC(=N)N)NC(=O)CN(C[C@H](C)NC(=O)CN(C[C@H](CCC(=O)O)NC(C)=O)S(C)(=O)=O)S(C)(=O)=O)S(C)(=O)=O)S(=O)(=O)CCN)C(C)O)S(=O)(=O)CC(C)C)S(=O)(=O)CCN)S(=O)(=O)CC(C)C (some centres unmarked) [Peptide 12]	completely losing their ability to inhibit β-catenin/BCL9 PPI
17.4 ± 3.35 µM	15.7 ± 3 µM	inferior binding activity	8.26 µM	CCC(C)[C@@H](CN(CC(=O)N[C@@H](C)CN(CC(=O)N[C@@H](CC(C)C)CN(CC(N)=O)S(=O)(=O)Cc1ccccc1)S(=O)(=O)CC(C)C)S(C)(=O)=O)NC(=O)CN(C[C@H](CCCNC(=N)N)NC(=O)CN(C[C@H](CC(C)C)NC(=O)CN(C[C@@H](NC(=O)CN(C[C@H](CC(C)C)NC(=O)CN(C[C@H](CCCNC(=N)N)NC(=O)CN(C[C@H](CCCNC(=N)N)NC(=O)CN(C[C@H](CCC(=O)O)NC(C)=O)S(=O)(=O)CCN)S(C)(=O)=O)S(C)(=O)=O)S(=O)(=O)CCN)C(C)O)S(=O)(=O)CC(C)C)S(=O)(=O)CCN)S(=O)(=O)CC(C)C (some centres unmarked) [Peptide 11]	

— patent US12415832B2, “B-catenin/B-cell Lymphoma 9 protein-protein interaction inhibiting peptidomimetics” (University of South Florida, priority 2019, dated 2025)
